From ChEMBL document CHEMBL1157238, “An unusual oxalylated tetramic acid from the New Zealand basidiomycete Chamonixia pachydermis” (2006) come the findings set out here.

In the test the test system is Bacillus subtilis. As to the kind of experiment: Antibacterial activity against Bacillus subtilis at 40 ug by agar diffusion assay. The note with it: read-out: IZ. Type of test: functional. On the technique in general: In agar diffusion tests the substance spreads into inoculated agar from a disc or well.

For `O=C(O)C(=O)C1=C(O)/C(=C/c2ccc(O)c(Cl)c2)NC1=O` [PACHYDERMIN], the zone of inhibition at 40 µg/disc is 1 mm.
